Data taken from PMC5831858, “Pharmacological characterisation of CR6086, a potent prostaglandin E2 receptor 4 antagonist, as a new potential disease-modifying anti-rheumatic drug” (Arthritis Research & Therapy, 2018).

Assays:
BZD (peripheral) = BZD (peripheral) (Rattus norvegicus, UniProt P16257); assay: Benzodiazepine receptor (peripheral) binding; conditions: [^3H]PK 11195, Rat heart, read-out: CR6086 Activity at 10µM
NK1 = NK1 (Homo sapiens, UniProt P25103); assay: Neurokinin receptor NK1 binding; conditions: [^125I]BH-SP, U-373MG cells (endogenous), read-out: CR6086 Activity at 10µM
CGRP = CGRP (Homo sapiens, UniProt O60894+Q16602); assay: CGRP receptor binding; conditions: [^125I]hCGRPα, Human recombinant CHO cells, read-out: CR6086 Activity at 10µM
Sequence of CGRP (Q16602 23-461): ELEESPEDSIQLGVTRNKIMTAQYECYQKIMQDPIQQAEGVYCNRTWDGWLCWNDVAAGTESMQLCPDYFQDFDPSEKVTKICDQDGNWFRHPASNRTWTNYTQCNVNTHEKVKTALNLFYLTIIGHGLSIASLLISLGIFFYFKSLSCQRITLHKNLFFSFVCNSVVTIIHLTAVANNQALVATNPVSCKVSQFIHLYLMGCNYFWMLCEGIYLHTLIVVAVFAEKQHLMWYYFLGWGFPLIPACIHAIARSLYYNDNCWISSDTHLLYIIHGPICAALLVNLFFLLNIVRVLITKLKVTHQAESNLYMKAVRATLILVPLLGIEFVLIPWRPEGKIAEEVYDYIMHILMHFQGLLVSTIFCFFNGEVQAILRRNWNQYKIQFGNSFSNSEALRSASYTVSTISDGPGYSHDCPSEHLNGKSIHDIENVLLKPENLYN
Sequence of CGRP (O60894 27-148): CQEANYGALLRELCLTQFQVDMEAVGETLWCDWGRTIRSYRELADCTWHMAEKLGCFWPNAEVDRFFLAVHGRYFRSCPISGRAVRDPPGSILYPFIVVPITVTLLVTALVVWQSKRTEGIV

V1a = V1a (Homo sapiens, UniProt P37288); assay: V1a receptor binding; conditions: [^3H]AVP, Human recombinant CHO cells, read-out: CR6086 Activity at 10µM
Sequence of V1a (P37288 whole entry): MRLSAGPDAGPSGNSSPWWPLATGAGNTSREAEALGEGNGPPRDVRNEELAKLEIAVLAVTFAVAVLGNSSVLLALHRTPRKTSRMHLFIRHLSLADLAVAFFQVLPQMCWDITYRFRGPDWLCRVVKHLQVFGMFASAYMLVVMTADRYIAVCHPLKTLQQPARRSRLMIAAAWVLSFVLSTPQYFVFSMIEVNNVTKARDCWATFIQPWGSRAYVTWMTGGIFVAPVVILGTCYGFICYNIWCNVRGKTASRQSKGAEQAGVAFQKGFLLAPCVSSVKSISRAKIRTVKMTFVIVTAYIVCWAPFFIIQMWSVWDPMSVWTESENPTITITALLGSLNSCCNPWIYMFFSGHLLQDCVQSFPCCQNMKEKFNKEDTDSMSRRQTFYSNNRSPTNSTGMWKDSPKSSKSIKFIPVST

5-HT transporter = 5-HT transporter (Homo sapiens, UniProt P31645); assay: 5-HT transporter binding; conditions: [^3H]imipramine, Human recombinant CHO cells, read-out: CR6086 Activity at 10µM
Sequence of 5-HT transporter (P31645 whole entry): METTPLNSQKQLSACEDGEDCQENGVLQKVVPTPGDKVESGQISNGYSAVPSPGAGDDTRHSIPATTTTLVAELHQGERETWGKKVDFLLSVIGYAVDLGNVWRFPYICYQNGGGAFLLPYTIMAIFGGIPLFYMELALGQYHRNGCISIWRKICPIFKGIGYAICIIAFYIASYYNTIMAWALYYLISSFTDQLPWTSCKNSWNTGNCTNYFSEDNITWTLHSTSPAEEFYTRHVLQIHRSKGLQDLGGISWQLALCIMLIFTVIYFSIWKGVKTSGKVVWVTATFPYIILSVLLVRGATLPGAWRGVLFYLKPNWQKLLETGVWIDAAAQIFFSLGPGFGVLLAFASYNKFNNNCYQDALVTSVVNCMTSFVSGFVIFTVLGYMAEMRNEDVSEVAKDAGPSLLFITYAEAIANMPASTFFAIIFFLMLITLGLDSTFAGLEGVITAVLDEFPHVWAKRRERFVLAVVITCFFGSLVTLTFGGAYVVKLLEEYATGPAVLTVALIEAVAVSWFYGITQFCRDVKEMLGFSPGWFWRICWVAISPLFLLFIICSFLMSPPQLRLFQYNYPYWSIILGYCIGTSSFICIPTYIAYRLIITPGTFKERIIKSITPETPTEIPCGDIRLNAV

TNF-α = TNF-α receptor binding; conditions: [^125I]TNF-α, U-937 cells
B2 = B2 (Homo sapiens, UniProt P30411); assay: B2 receptor binding; conditions: [^3H]bradykinin, Human recombinant CHO cells, read-out: CR6086 Activity at 10µM
DP1 = DP1 (Homo sapiens, UniProt Q13258); assay: Eicosanoid receptor DP1 functional assay; format: cell-based; conditions: CHO cells
Sequence of DP1 (Q13258 whole entry): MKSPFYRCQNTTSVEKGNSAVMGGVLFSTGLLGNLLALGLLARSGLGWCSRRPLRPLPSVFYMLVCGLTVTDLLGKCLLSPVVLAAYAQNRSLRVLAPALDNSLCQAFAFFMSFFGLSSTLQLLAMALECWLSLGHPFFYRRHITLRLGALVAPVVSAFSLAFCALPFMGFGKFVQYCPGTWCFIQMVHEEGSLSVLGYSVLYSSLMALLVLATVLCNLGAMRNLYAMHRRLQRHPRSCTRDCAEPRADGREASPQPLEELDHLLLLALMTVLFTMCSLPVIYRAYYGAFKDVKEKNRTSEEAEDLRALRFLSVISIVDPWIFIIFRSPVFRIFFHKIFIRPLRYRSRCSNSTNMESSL

D5 = D5 (Homo sapiens, UniProt P21918); assay: Dopamine receptor D5 binding; conditions: [^3H]SCH 23390, Human recombinant GH4 cells, read-out: CR6086 Activity at 10µM
Sequence of D5 (P21918 whole entry): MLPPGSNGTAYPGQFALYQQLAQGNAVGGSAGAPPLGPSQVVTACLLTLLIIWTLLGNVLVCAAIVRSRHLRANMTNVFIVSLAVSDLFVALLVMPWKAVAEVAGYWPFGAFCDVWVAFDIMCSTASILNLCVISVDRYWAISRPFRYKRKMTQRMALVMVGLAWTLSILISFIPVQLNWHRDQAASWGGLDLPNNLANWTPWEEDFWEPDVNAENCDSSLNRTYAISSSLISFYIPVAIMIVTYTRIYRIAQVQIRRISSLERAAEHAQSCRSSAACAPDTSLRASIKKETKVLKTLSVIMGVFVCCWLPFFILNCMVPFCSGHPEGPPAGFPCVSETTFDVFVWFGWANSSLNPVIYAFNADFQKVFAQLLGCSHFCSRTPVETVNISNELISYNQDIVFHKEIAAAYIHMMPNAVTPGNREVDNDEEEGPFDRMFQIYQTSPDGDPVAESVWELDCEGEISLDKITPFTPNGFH

[1] = system: arthritic mice (collagen-induced arthritis model); assay: Serum anti-bCII IgG antibodies (ELISA), CIA mice third study; format: in vivo, mouse; conditions: 30 mg/kg CR6086, end of treatment
Method: In a third study, mice were randomised into the following treatment groups: naive, vehicle, 30 mg/kg CR6086, 1 or 3 mg/kg MTX, with the latter administered alone or in combination with 30 mg/kg CR6086. CR6086 was administered orally once daily. MTX was administered intraperitoneally three times per week (every third day). Mice were treated with test drugs for 16 days.
At the end of the treatment period, animals were killed, and their paws were explanted and processed for histology. In the third study, the serum concentrations of immunoglobulin G (IgG) antibodies against bCII were measured by ELISA (catalogue number 2032; Chondrex, Redmond, WA, USA).

CCR1 = CCR1 (Homo sapiens, UniProt P32246); assay: CCR1 receptor binding; conditions: [^125I]MIP-1α, Human recombinant HEK-293 cells, read-out: CR6086 Activity at 10µM
α2 (non-selective) = assay: Adrenergic receptor α2 binding; conditions: [^3H]RX 821002, Rat cerebral cortex
5-HT1A = 5-HT1A (Homo sapiens, UniProt P08908); assay: Serotonin receptor 5-HT1A binding; conditions: [^3H]8-OH-DPAT, Human recombinant HEK-293 cells, read-out: CR6086 Activity at 10µM
PDGF = PDGF receptor binding; conditions: [^125I]PDGF BB, Balb/c 3T3 cells
M1 = M1 (Homo sapiens, UniProt P11229); assay: Muscarinic acetylcholine receptor M1 binding; conditions: [^3H]pirenzepine, Human recombinant CHO cells, read-out: CR6086 Activity at 10µM
AR = AR (Homo sapiens, UniProt P10275, T878A); assay: Nuclear receptor AR binding; conditions: [^3H]methyltrienolone, LNCaP cells, read-out: CR6086 Activity at 10µM
Sequence of AR (P10275 whole entry T878A): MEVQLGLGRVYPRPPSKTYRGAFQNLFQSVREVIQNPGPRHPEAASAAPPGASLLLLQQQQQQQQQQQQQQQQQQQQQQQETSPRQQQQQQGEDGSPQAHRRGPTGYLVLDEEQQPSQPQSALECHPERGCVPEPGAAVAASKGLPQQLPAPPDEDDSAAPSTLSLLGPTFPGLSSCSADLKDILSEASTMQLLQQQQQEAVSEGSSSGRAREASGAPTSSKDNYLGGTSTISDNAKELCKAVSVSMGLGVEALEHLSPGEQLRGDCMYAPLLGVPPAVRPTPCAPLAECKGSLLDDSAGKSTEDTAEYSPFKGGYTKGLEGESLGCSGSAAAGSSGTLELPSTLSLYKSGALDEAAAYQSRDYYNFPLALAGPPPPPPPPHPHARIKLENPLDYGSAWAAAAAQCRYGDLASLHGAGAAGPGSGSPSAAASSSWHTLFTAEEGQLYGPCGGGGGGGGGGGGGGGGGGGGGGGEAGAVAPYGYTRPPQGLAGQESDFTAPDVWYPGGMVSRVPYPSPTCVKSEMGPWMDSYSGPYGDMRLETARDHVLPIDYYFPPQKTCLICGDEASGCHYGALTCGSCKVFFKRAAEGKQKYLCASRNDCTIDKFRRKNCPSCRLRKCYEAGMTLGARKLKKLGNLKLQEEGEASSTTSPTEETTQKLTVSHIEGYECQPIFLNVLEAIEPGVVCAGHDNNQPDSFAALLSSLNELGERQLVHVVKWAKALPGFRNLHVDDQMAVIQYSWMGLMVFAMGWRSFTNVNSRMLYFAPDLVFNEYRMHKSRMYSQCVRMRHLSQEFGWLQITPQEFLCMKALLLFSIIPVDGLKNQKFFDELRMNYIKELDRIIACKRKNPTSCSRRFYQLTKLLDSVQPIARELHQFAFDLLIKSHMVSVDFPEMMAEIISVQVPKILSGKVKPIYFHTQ

GABA (non-selective) = assay: GABA receptor (non-selective) binding; conditions: [^3H]GABA, Rat cerebral cortex
µ (MOP) = µ (MOP) (Homo sapiens, UniProt P35372); assay: Opioid receptor µ (MOP) binding; conditions: [^3H]DAMGO, Human recombinant HEK-293 cells, read-out: CR6086 Activity at 10µM
Sequence of µ (MOP) (P35372 whole entry): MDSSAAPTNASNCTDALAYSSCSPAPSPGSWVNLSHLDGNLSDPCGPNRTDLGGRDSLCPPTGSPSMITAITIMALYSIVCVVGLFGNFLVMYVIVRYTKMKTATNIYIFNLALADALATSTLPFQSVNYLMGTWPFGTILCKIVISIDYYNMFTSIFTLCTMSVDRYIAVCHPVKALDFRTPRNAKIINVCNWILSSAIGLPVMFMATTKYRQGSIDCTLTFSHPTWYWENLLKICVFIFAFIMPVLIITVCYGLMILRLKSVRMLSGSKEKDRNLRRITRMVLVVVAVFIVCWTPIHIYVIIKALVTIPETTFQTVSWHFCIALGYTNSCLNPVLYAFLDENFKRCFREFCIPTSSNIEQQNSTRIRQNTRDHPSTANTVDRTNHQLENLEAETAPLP

[2] = biological target: Norepinephrine transporter (Homo sapiens, UniProt P23975); assay: Norepinephrine transporter binding; conditions: [^3H]nisoxetine, Human recombinant CHO cells, read-out: CR6086 Activity at 10µM
Sequence of Norepinephrine transporter (P23975 whole entry): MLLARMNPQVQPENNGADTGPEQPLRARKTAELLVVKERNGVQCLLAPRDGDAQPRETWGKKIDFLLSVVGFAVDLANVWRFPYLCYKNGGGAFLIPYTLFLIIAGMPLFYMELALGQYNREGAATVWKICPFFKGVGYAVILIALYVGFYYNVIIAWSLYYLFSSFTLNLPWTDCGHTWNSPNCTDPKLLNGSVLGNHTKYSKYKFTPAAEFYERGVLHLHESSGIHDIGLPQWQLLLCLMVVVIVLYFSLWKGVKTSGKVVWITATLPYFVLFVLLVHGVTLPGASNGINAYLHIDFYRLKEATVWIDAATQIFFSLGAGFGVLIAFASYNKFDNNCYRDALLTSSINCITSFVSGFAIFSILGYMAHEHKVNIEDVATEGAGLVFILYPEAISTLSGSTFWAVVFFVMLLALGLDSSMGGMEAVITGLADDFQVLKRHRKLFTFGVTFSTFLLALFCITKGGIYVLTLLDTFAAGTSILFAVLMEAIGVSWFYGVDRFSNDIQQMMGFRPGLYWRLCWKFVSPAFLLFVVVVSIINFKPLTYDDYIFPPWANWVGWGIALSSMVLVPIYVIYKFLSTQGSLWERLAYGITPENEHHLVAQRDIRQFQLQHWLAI

VEGF gene expression = VEGF gene expression in THP-1 cells differentiated to macrophages; format: cell-based; conditions: Homo sapiens, LPS 10 ng/ml + PGE2 10 nM, read-out: IC50 transcription of VEGF
Method: The human monocyte cell line THP-1 was obtained from the ATCC and was grown according to the instructions provided. THP-1 monocytic cells were differentiated to macrophages with 100 nM phorbol 12-myristate 13-acetate (PMA) for 4 days. Macrophages were then stimulated with lipopolysaccharide (LPS) 10 ng/ml and PGE2 10 nM for 3 or 24 h. Total RNA was purified using the ABI Prism 6100 Nucleic Acid PrepStation (Applied Biosystems, Foster City, CA, USA) and retrotranscribed using the High-Capacity cDNA Reverse Transcription Kit (Thermo Fisher Scientific). RT-PCR analysis was performed using the Applied Biosystems 7500 Fast Real-Time PCR System using specific TaqMan assays (number Hs00174131_m1 for IL-6, number Hs00900054_m1 for vascular endothelial growth factor A [VEGFA]; Thermo Fisher Scientific) and, as an endogenous control, the 18S Pre-Developed TaqMan® Assay (Thermo Fisher Scientific). The data analysis, with normalisation on 18S amplified values, was done following Thermo Fisher Scientific’s specific instructions for gene expression relative quantification. All individual data are the result of at least three different analyses for each sample.

5-HT2B = 5-HT2B (Homo sapiens, UniProt P41595); assay: Serotonin receptor 5-HT2B binding; conditions: [^125I](±)DOI, Human recombinant CHO cells, read-out: CR6086 Activity at 10µM
PPARγ = PPARγ (Homo sapiens, UniProt P37231); assay: Nuclear receptor PPARγ binding; conditions: [^3H]rosiglitazone, Human recombinant E.Coli, read-out: CR6086 Activity at 10µM
Sequence of PPARγ (P37231 whole entry): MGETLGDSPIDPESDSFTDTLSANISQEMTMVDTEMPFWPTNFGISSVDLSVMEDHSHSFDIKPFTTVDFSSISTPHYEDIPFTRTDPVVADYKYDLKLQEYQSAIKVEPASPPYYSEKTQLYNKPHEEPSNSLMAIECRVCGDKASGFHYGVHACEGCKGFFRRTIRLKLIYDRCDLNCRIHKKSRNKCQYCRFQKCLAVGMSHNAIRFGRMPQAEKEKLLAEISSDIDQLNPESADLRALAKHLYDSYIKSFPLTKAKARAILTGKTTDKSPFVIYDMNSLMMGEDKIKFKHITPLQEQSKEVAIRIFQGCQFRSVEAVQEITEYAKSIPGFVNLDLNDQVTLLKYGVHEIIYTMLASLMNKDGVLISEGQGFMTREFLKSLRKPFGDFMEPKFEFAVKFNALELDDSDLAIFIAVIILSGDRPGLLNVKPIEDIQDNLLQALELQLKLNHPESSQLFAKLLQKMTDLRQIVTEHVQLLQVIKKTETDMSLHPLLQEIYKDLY

`O=C([O-])c1ccc(C2(NC(=O)[C@H]3CC4(CCN3Cc3ccc(C(F)(F)F)cc3)CC4)CC2)cc1.[Na+]` [CR6086, Sodium (R)-4-(1-(6-(4-(trifluoromethyl)benzyl)-6-azaspiro[2.5]octane-5-carboxamido)cyclopropyl)benzoate] was tested, and the inhibition at 10 µM (BZD (peripheral)) was less than 20%, the inhibition at 10 µM (NK1) was less than 20% and the inhibition at 10 µM (CGRP) was less than 20%. For the same compound, the inhibition at 10 µM (V1a) was less than 20%, the inhibition at 10 µM (5-HT transporter) was less than 20% and the “CR6086 Activity at 10µM” value (TNF-α) was “IN (IN = < 20% displacement or inhibition (all tables))”. For the same compound, the inhibition at 10 µM (B2) was less than 20%, the inhibition at 10 µM (DP1; agonist effect, read-out: CR6086 Activity at 10µM) was less than 20% and the “CR6086 Activity at 10µM” value (DP1; antagonist effect) was “IN (IN = < 20% displacement or inhibition (all tables))”. The inhibition at 10 µM (D5) was less than 20%, the “Anti-collagen II” value [1] was 324.91 ± 79.82 µg/mL and the inhibition at 10 µM (CCR1) was less than 20%. For the same compound, the “CR6086 Activity at 10µM” value (α2 (non-selective)) was “IN (IN = < 20% displacement or inhibition (all tables))”, the inhibition at 10 µM (5-HT1A) was less than 20% and the “CR6086 Activity at 10µM” value (PDGF) was “IN (IN = < 20% displacement or inhibition (all tables))”. For the same compound, the inhibition at 10 µM (M1) was less than 20%, the inhibition at 10 µM (AR) was less than 20% and the “CR6086 Activity at 10µM” value (GABA (non-selective)) was “IN (IN = < 20% displacement or inhibition (all tables))”. The inhibition at 10 µM (µ (MOP)) was less than 20%, the inhibition at 10 µM [2] was less than 20% and the IC50 (VEGF gene expression) was 25 nM. It also gave an inhibition at 10 µM (5-HT2B) of less than 20% and an inhibition at 10 µM (PPARγ) of less than 20%.
